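Step 1: Grow cells in 96-well plates. Step 2: Expose to compound for 48 hours at 5 concentrations. Step 3: Interpolate endpoints linearly; if unreached, use highest concentration. GI50 = concentration required for 50% inhibition of growth. TGI: concentration producing complete growth inhibition.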
Assays:
Assay in all cases: inhibition of tumour cell growth, NCI panel, 48 h; in the data active means GI50 below about 0.43 µM; inactive means the rest
CCRF-CEM leukemia = system: CCRF-CEM leukemia
SN12C renal = system: SN12C renal
MOLT-4 leukemia = system: MOLT-4 leukemia
SNB-75 CNS = system: SNB-75 CNS
NCI/ADR-RES ovarian = system: NCI/ADR-RES ovarian
MALME-3M melanoma = system: MALME-3M melanoma
OVCAR-5 ovarian = system: OVCAR-5 ovarian
SW-620 colon = system: SW-620 colon
HS 578T breast = system: HS 578T breast
MCF7 breast = system: MCF7 breast
786-0 renal = system: 786-0 renal
M14 melanoma = system: M14 melanoma
NCI-H23 lung = system: NCI-H23 lung
HL-60(TB) leukemia = system: HL-60(TB) leukemia
COLO 205 colon = system: COLO 205 colon
SF-268 CNS = system: SF-268 CNS
HCT-116 colon = system: HCT-116 colon
RXF 393 renal = system: RXF 393 renal
HCC-2998 colon = system: HCC-2998 colon
NCI-H226 lung = system: NCI-H226 lung
EKVX NSCLC = system: EKVX NSCLC
RPMI-8226 leukemia = system: RPMI-8226 leukemia
SK-MEL-5 melanoma = system: SK-MEL-5 melanoma
UACC-257 melanoma = system: UACC-257 melanoma
OVCAR-4 ovarian = system: OVCAR-4 ovarian
MDA-MB-435 = system: MDA-MB-435
KM12 colon = system: KM12 colon
OVCAR-3 ovarian = system: OVCAR-3 ovarian
A549 NSCLC = system: A549 NSCLC
SF-539 CNS = system: SF-539 CNS
NCI-H522 lung = system: NCI-H522 lung
SK-OV-3 ovarian = system: SK-OV-3 ovarian
LOX IMVI melanoma = system: LOX IMVI melanoma
SF-295 CNS = system: SF-295 CNS
A498 renal = system: A498 renal
ACHN renal = system: ACHN renal
U251 CNS = system: U251 CNS
PC-3 prostate = system: PC-3 prostate
SK-MEL-2 melanoma = system: SK-MEL-2 melanoma
MDA-MB-231 breast = system: MDA-MB-231 breast
TK-10 renal = system: TK-10 renal
K-562 leukemia = system: K-562 leukemia
BT-549 breast = system: BT-549 breast
CAKI-1 renal = system: CAKI-1 renal
DU-145 prostate = system: DU-145 prostate
HOP-62 NSCLC = system: HOP-62 NSCLC
OVCAR-8 ovarian = system: OVCAR-8 ovarian
HT29 colon = system: HT29 colon
T-47D breast = system: T-47D breast
SNB-19 CNS = system: SNB-19 CNS
HOP-92 NSCLC = system: HOP-92 NSCLC
IGROV1 ovarian = system: IGROV1 ovarian
NCI-H460 lung = system: NCI-H460 lung
UO-31 renal = system: UO-31 renal
SK-MEL-28 melanoma = system: SK-MEL-28 melanoma
HCT-15 colon = system: HCT-15 colon
UACC-62 melanoma = system: UACC-62 melanoma
SR leukemia = system: SR leukemia

O=S1(=O)N(Cc2ccccc2)[C@@H](Cc2ccccc2)C2O[C@H]2[C@H](Cc2ccccc2)N1Cc1ccccc1 (stereo partly drawn)
inactive: GI50 (CCRF-CEM leukemia) > 7.5 µM | GI50 (SN12C renal) > 7.5 µM | GI50 (MOLT-4 leukemia) 4.12 µM | GI50 (SNB-75 CNS) > 7.5 µM | GI50 (NCI/ADR-RES ovarian) 5.23 µM | GI50 (MALME-3M melanoma) > 7.5 µM | GI50 (OVCAR-5 ovarian) > 7.5 µM | GI50 (SW-620 colon) > 7.5 µM | GI50 (HS 578T breast) > 7.5 µM | GI50 (MCF7 breast) 4.27 µM | GI50 (786-0 renal) 5.12 µM | GI50 (M14 melanoma) > 7.5 µM | GI50 (NCI-H23 lung) 3.47 µM | GI50 (HL-60(TB) leukemia) 4.75 µM | GI50 (COLO 205 colon) > 7.5 µM | GI50 (SF-268 CNS) 6.08 µM | GI50 (HCT-116 colon) 0.844 µM | GI50 (RXF 393 renal) > 7.5 µM | GI50 (HCC-2998 colon) > 7.5 µM | GI50 (NCI-H226 lung) > 7.5 µM | GI50 (EKVX NSCLC) 6.55 µM | GI50 (RPMI-8226 leukemia) 4.92 µM | GI50 (SK-MEL-5 melanoma) 1.79 µM | GI50 (UACC-257 melanoma) 2.89 µM | GI50 (OVCAR-4 ovarian) > 7.5 µM | GI50 (MDA-MB-435) > 7.5 µM | GI50 (KM12 colon) 7.19 µM | GI50 (OVCAR-3 ovarian) 4.03 µM | GI50 (A549 NSCLC) 3.78 µM | GI50 (SF-539 CNS) > 7.5 µM | GI50 (NCI-H522 lung) 1.83 µM | GI50 (SK-OV-3 ovarian) > 7.5 µM | GI50 (LOX IMVI melanoma) 5.38 µM | GI50 (SF-295 CNS) 1.8 µM | GI50 (A498 renal) > 7.5 µM | GI50 (ACHN renal) 5.88 µM | GI50 (U251 CNS) 1.84 µM | GI50 (PC-3 prostate) 3.06 µM | GI50 (SK-MEL-2 melanoma) > 7.5 µM | GI50 (MDA-MB-231 breast) > 7.5 µM | GI50 (TK-10 renal) 3.9 µM | GI50 (K-562 leukemia) 3.34 µM | GI50 (BT-549 breast) 4.09 µM | GI50 (CAKI-1 renal) 0.949 µM | GI50 (DU-145 prostate) > 7.5 µM | GI50 (HOP-62 NSCLC) > 7.5 µM | GI50 (OVCAR-8 ovarian) > 7.5 µM | GI50 (HT29 colon) > 7.5 µM | GI50 (T-47D breast) 6.81 µM | GI50 (SNB-19 CNS) > 7.5 µM | GI50 (HOP-92 NSCLC) > 7.5 µM | GI50 (IGROV1 ovarian) 5.06 µM | GI50 (NCI-H460 lung) 2.53 µM | GI50 (UO-31 renal) > 7.5 µM | GI50 (SK-MEL-28 melanoma) > 7.5 µM | GI50 (HCT-15 colon) 3.92 µM | GI50 (UACC-62 melanoma) 6.75 µM
> 7.5 µM: TGI (CCRF-CEM leukemia) | TGI (SN12C renal) | TGI (MOLT-4 leukemia) | TGI (SNB-75 CNS) | TGI (NCI/ADR-RES ovarian) | TGI (MALME-3M melanoma) | TGI (OVCAR-5 ovarian) | TGI (SW-620 colon) | TGI (HS 578T breast) | TGI (MCF7 breast) | TGI (786-0 renal) | TGI (M14 melanoma) | TGI (NCI-H23 lung) | TGI (HL-60(TB) leukemia) | TGI (COLO 205 colon) | TGI (SF-268 CNS) | TGI (HCT-116 colon) | TGI (RXF 393 renal) | TGI (HCC-2998 colon) | TGI (NCI-H226 lung) | TGI (EKVX NSCLC) | TGI (RPMI-8226 leukemia) | TGI (SK-MEL-5 melanoma) | TGI (UACC-257 melanoma) | TGI (OVCAR-4 ovarian) | TGI (MDA-MB-435) | TGI (KM12 colon) | TGI (OVCAR-3 ovarian) | TGI (A549 NSCLC) | TGI (SF-539 CNS) | TGI (NCI-H522 lung) | TGI (SK-OV-3 ovarian) | TGI (LOX IMVI melanoma) | TGI (SF-295 CNS) | TGI (A498 renal) | TGI (ACHN renal) | TGI (U251 CNS) | TGI (PC-3 prostate) | TGI (SK-MEL-2 melanoma) | TGI (MDA-MB-231 breast) | TGI (TK-10 renal) | TGI (K-562 leukemia) | TGI (BT-549 breast) | TGI (CAKI-1 renal) | TGI (DU-145 prostate) | TGI (HOP-62 NSCLC) | TGI (OVCAR-8 ovarian) | TGI (HT29 colon) | TGI (T-47D breast) | TGI (SNB-19 CNS) | TGI (HOP-92 NSCLC) | TGI (IGROV1 ovarian) | TGI (NCI-H460 lung) | TGI (UO-31 renal) | TGI (SK-MEL-28 melanoma) | TGI (HCT-15 colon) | TGI (UACC-62 melanoma)

COc1ccc(Oc2nc3ccc(C(F)(F)F)cc3nc2-c2ccccc2)cc1
> 100 µM: TGI (SR leukemia) | TGI (CCRF-CEM leukemia) | TGI (SN12C renal) | TGI (MOLT-4 leukemia) | TGI (MALME-3M melanoma) | TGI (OVCAR-5 ovarian) | TGI (SW-620 colon) | TGI (HS 578T breast) | TGI (MCF7 breast) | TGI (786-0 renal) | TGI (HL-60(TB) leukemia) | TGI (COLO 205 colon) | TGI (SF-268 CNS) | TGI (HCT-116 colon) | TGI (RXF 393 renal) | TGI (HCC-2998 colon) | TGI (NCI-H226 lung) | TGI (EKVX NSCLC) | TGI (RPMI-8226 leukemia) | TGI (SK-MEL-5 melanoma) | TGI (UACC-257 melanoma) | TGI (OVCAR-4 ovarian) | TGI (MDA-MB-435) | TGI (KM12 colon) | TGI (OVCAR-3 ovarian) | TGI (NCI-H522 lung) | TGI (SK-OV-3 ovarian) | TGI (LOX IMVI melanoma) | TGI (SF-295 CNS) | TGI (A498 renal) | TGI (ACHN renal) | TGI (U251 CNS) | TGI (PC-3 prostate) | TGI (SK-MEL-2 melanoma) | TGI (MDA-MB-231 breast) | TGI (TK-10 renal) | TGI (K-562 leukemia) | TGI (CAKI-1 renal) | TGI (DU-145 prostate) | TGI (HOP-62 NSCLC) | TGI (HT29 colon) | TGI (SNB-19 CNS) | TGI (HOP-92 NSCLC) | TGI (IGROV1 ovarian) | TGI (NCI-H460 lung) | TGI (UO-31 renal) | TGI (SK-MEL-28 melanoma) | TGI (HCT-15 colon) | TGI (UACC-62 melanoma)
